# Test results from patent publication US10633383B2, “Compounds for the treatment, alleviation or prevention of disorders associated with Tau aggregates” (AC Immune SA, priority 2018, dated 2020).
# Columns and labels:
# [1] = tested on: human neuroblastoma cell line overexpressing the full-length form of human Tau carrying the P301L mutation; test: Reduction of intracellular Tau aggregation (AlphaLISA); assay type: cell-based; conditions: compound at 5 μM, 24 h, aggregated Tau normalized to total Tau, relative to DMSO-treated cells
# Procedure: Reduction of Intracellular Tau Aggregation
# A human neuroblastoma cell line overexpressing the full-length form of human Tau carrying the P301L mutation was cultured in complete medium [DMEM-F12 4.5 g/L Glutamax (Invitrogen), 15% FBS (Biochrom), 1% Peni/Strep (Invitrogen) supplemented with 2.5 μg/ml of G418 (Sigma-Aldrich) selection antibiotic]. The day before the experiment 5×10^5 cells/well were plated in a 6 well plate in 3 mL of complete medium. The next day, cells were incubated with DMSO or a compound of the present invention at a 5 μM for additional 24 h at 37° C. After incubation, cells were trypsinized, resuspended in 100 μl of homogenization buffer [25 mM Tris-HCl pH 7.4, 150 mM NaCl, 1 mM EDTA, 1 mM EGTA containing phosphatase inhibitors (30 mM NaF, 0.2 mM Na3VO4, 1 nM Okadaic acid, 1 mM PMSF, 5 mM Na4P2O7) and protease inhibitor cocktail (Complete™, Roche)], and then physically lysed with three rapid cycles of freezing and thawing. Samples were then directly tested in the AlphaLISA assay. Phosphorylated, aggregated, and total Tau were quantified by AlphaLisa using the following antibody pairs: • HT7-Acceptor beads+biotin (BT)-Tau13-Donor beads: Total Tau • HT7-Acceptor beads+biotin (BT)-HT7-Donor beads: Aggregated human Tau
# The Tau13 (Abcam) was biotinylated using EZ-Link® NHS-PEO Solid Phase biotinylation kit (Thermo Scientific), while the HT7-biotin was from a commercial source (Thermo Scientific).
# For each antibody pairs the concentration of acceptor beads and biotinylated antibodies was optimized. All samples were first tested in a dilution series in PBS in order to identify the linear range and optimal dilution for each sample and assay. For the final protocol, the following reagents were added in a 384-well white OptiPlate (PerkinElmer): • 5 μL of test diluted sample • 20 μL of the mixture biotin-mAb acceptor beads at the following final concentrations: • HT7-BT at 1.25 nM in combination with HT7-Acc beads at 10 μg/ml • Tau13-BT at 5 nM in combination with HT7-Acc beads at 2.5 μg/ml
# After incubation of this mixture at room temperature for 1 h, 25 μL of Streptavidin Donor beads (Perkin Elmer) at 25 μg/mL were added in the dark. Plates were analyzed after 30 min incubation using the EnSpire Alpha instrument and EnSpire Workstation version 3.00. Data for aggregated Tau were normalized to total Tau and then expressed as percentage of the DMSO-treated cells.
# rTg4510 mice = test: Histology for neuroinflammation markers (Iba1, CD68) in rTg4510 mice; assay type: in vivo, mouse
# Source text: In Vivo Efficacy of the Compounds of the Present Invention In Vivo Study Design for the Testing of Example 12 and Example 45
# Double transgenic rTg4510 mice express the full-length human Tau carrying the P301L mutation (Tau4R0N-P301L) under the control of the tet-inducible CaMKII promoter (Ramsden et al., J. Neurosci., 2005⋅25(46):10637-10647). Single transgenic mice expressing only the tetracycline-controlled transactivator (tTA) were used as genotype controls. The study comprised 4 treatment groups (n=15 female for tTa group and n=11 female mice/group for the treatment) with the following group distribution (see Table 9). Compounds or vehicle control were administered once daily or bi-daily by gavage for 1 month starting at the age of 5 months. All mice received 200 ppm doxycycline in chow for 3 weeks plus a loading dose in drinking water for the first two days at 1.5 mg/mL in 4% sucrose. […]
# After perfusion, brains were then removed and hemi-sagitally hemisected. […] A systematic random set of sections from seven sagittal levels per animal was used to quantify the Iba1 and CD68 immunoreactivity while 1 section/animal from the medio-lateral level 4 were used to assess Tau misfolding (MC1 monoclonal antibody). […] Sections were imaged using a digital slide scanner (Panoramic 250 Flash, 3D Histech Ltd.) and quantified using the image visualization software Visiopharm. […]
compound,measurement,setting,value
Fc1ccc2[nH]c3c(c2c1)CN(c1ccc2nc(N4CCOCC4)oc2c1)CC3 [Example 12],inhibition at 5 µM,[1],25 to 50%
same,microgliosis measured as Iba1 immunoreactive area,rTg4510 mice; 30 mg/kg bi-daily by gavage for 1 month (FIG. 3A),decreased microgliosis
same,activated phagocytic microglial cells positive for CD68,rTg4510 mice; 30 mg/kg bi-daily by gavage for 1 month (FIG. 3B),decreased highy activated phagocytic migroglial cells
